From PubChem BioAssay (NCI)
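Results reflect a 48-hour exposure of cells in 96-well plates to compound at five concentrations. The concentration for 50% growth inhibition is given as GI50. The concentration for full growth arrest is given as TGI.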 *1 amine or outer side, *2 acyl side, *3 side chain or, on linkers, in order; H or OH if unused. Where a SMILES comes first, the peptide text is derived from it. The star is where a group is joined. γGlu = O=C(O)[CH](CCC(=O)[*:2])N[*:1]; NHOH = ON*

Tests used:
Assay in all cases: DTP human tumour cell line panel, 48 h
OVCAR-8 ovarian = test system: OVCAR-8 ovarian
M14 melanoma = test system: M14 melanoma
NCI-H23 lung = test system: NCI-H23 lung
HOP-62 NSCLC = test system: HOP-62 NSCLC
HCT-15 colon = test system: HCT-15 colon
NCI-H226 lung = test system: NCI-H226 lung
RXF 393 renal = test system: RXF 393 renal
LOX IMVI melanoma = test system: LOX IMVI melanoma
SF-295 CNS = test system: SF-295 CNS
NCI-H522 lung = test system: NCI-H522 lung
U251 CNS = test system: U251 CNS
UACC-62 melanoma = test system: UACC-62 melanoma
A549 NSCLC = test system: A549 NSCLC

Structure (SMILES)	TGI (OVCAR-8 ovarian) [µM]	TGI (M14 melanoma) [µM]	TGI (NCI-H23 lung) [µM]	TGI (HOP-62 NSCLC) [µM]	TGI (HCT-15 colon) [µM]	TGI (NCI-H226 lung) [µM]	TGI (RXF 393 renal) [µM]	TGI (LOX IMVI melanoma) [µM]	TGI (SF-295 CNS) [µM]	TGI (NCI-H522 lung) [µM]	TGI (U251 CNS) [µM]	TGI (UACC-62 melanoma) [µM]	TGI (A549 NSCLC) [µM]	GI50 (NCI-H522 lung) [µM]
Fc1ccc(/C=C2\COCC3=C2NC(=S)NC3c2ccc(F)cc2)cc1 (configuration not stated)	30	30.1	50.7	31.7	32.1	45.1	30.4	38.2	33.3	34.2	40.8	32.4	–	–
CCCCCCc1cc2cc(C(=O)Nc3nc(C45CC6CC(CC(C6)C4)C5)cs3)c(=O)oc2cc1O	43.1	–	33.2	37.6	39.2	44.8	30.6	30.9	23.6	8.33	28.6	25.4	54.4	–
O=C1O/C(=C(\Br)c2ccc([N+](=O)[O-])cc2)c2ccccc21	> 100	> 100	> 100	> 100	> 81.5	> 100	> 100	> 100	> 100	> 88.8	> 100	> 100	> 100	–
COc1cc(O)c2c(=O)c3cccc(C)c3[nH]c2c1	> 10	> 10	> 10	> 10	> 10	> 10	> 10	> 10	> 10	> 10	> 10	> 10	> 10	–
CC(C)(C)c1ccc(O)c(C(O)c2ccccn2)c1 (configuration not stated)	> 100	–	> 100	> 100	> 100	> 100	> 100	> 100	> 100	> 100	> 100	26.4	> 100	–
O=S(=O)(O)c1cc(O)c(N=NC2S(=O)(=O)OCCOS2(=O)=O)c2ccccc12	> 100	> 100	> 100	> 100	> 100	> 100	> 100	> 100	> 100	> 100	> 100	> 100	> 100	–
CCN1CC2=C(OC(N)=C(C#N)C2c2ccc(Cl)cc2)/C(=C/c2ccc(Cl)cc2)C1 (configuration not stated)	> 100	> 100	68.7	78.4	> 100	94.3	31.9	> 100	> 100	> 100	47.2	> 100	49.1	–
Cc1c2ccccc2c(/C=N/NC(=O)CSCC(=O)N/N=C/c2c3ccccc3c(C)c3ccccc23)c2ccccc12	> 86.4	> 100	50.7	36.1	> 100	> 61.1	54.9	> 100	49.9	> 100	> 57.6	> 100	> 100	> 100
Cc1ccccc1NC(=O)C(=O)C(C1OC(=O)c2ccccc21)[N+](=O)[O-] (configuration not stated)	> 100	> 100	> 100	> 100	> 100	> 100	> 100	> 100	> 100	> 100	> 100	> 100	> 100	–
NC(CCC(=O)NC(CCC(=O)NO)C(=O)NCC(=O)O)C(=O)O (configuration not stated) (γGlu-Glu(NHOH)-Gly-OH; configuration not given here)	> 100	> 100	> 100	> 100	> 100	> 100	> 100	> 100	> 100	> 100	> 100	> 100	> 100	–
COc1ccc(Nc2nc3ccccc3nc2-c2cccs2)cc1OC	> 10	> 10	> 10	> 10	> 10	> 10	> 10	> 10	> 10	> 10	> 10	> 10	> 10	–
O=[N+]([O-])C1=Cc2c(O)ccc(O)c2C2OC=CC12 (configuration not stated)	> 56.2	34.5	32.4	35.2	37	> 73.8	29.4	42.6	32.2	18.1	32.6	15.9	43.4	–
CN(C)c1ccc(-c2c(C#N)c(-c3ccccc3)n(NS(=O)(=O)c3ccccc3)c(=O)c2C#N)cc1	> 100	> 100	–	> 100	> 100	> 100	> 100	> 100	> 100	> 100	> 100	> 100	> 100	–
C[C@]12CCC(=O)C=C1CC[C@@H]1[C@@H]2CC[C@]2(C)C(=O)/C(=C/c3ccc([N+](=O)[O-])cc3)C[C@@H]12	> 100	> 100	> 100	> 100	> 100	> 100	73.5	> 100	> 100	> 100	–	46.2	> 100	–
CC1=NN(c2ccccc2)C(=O)/C1=C1\SC(c2ccccc2)(c2ccccc2)c2ccccc21	> 100	> 100	> 100	> 100	> 100	> 100	> 100	> 100	> 100	> 100	> 100	> 100	> 100	–
O=C1c2cccnc2S(=O)(=O)N1c1ccc(Br)cc1	> 100	> 100	> 100	> 100	> 100	> 100	> 100	> 100	> 100	> 100	> 100	> 100	> 100	–
CN(C(=O)Cc1cc(Cl)c(Cl)cc1NC(=O)CCCN)[C@H]1CCCC[C@@H]1N1CCCC1	> 100	34	> 100	> 100	> 100	> 100	48.7	39.3	> 100	29.8	35.3	40.4	83.1	–
